# Measurements published in patent US20240036050A1, “Methods Of Detecting And Treating Hepatocellular Carcinoma” (The United States Government As Represented By The …, priority 2022, published 2024).
# Experiments:
# Type in all cases: cell-based, human
# [1] = test system: CD63-GFP stable cell line (Huh-7.5-CD63-GFP); assay: CD63-GFP expression by fluorescence microscopy after autophagy modulation; conditions: increasing concentrations, 72 hours
# Protocol: FIGS. 5A-5D: Show impaired autophagy promotes GPC3 accumulation in exosomes. CD63-GFP stable cell line was treated with increasing concentrations of Torin1 or Bafilomycin A1 for 72 hours.
# Huh7.5 cells were cultured in DMEM high glucose with 10% fetal calf serum (FBS), L-glutamine, 1 mM sodium pyruvate, and 0.1 mM non-essential amino acids with 1% penicillin and streptomycin. Huh-7.5 cells were transfected with CD63-GFP plasmid, and multiple stable cell lines expressing (Huh-7.5-CD63-GFP) were selected using G-418 (Sigma-Aldrich, St. Louis, MO) selection. Human cholangiocarcinoma cell line (HuCCA) and human embryonic kidney cell line (HEK 293) were purchased from ATCC. These two cell lines were cultured according to the instruction provided by the supplier and maintained with regular medium change every three days. Torin 1 was purchased from EMD Millipore, Burlington, MA (475991-10MG), and Bafilomycin A1 were purchased from Cell Signaling Technology, Danvers, MA (54645S). Exosome-free fetal bovine serum was purchased from ThermoFisher Waltham, MA (A2720803). Monoclonal rabbit and mouse antibodies were used as primary antibodies in western blot as well as fluorescent microscopy imaging. Anti-CD81 monoclonal rabbit—MA5-13548—and anti-glypican3 monoclonal rabbit—MA5-16368 purchased from ThermoFisher. […]
# Huh-7.5 cells [2] = assay: GPC3, Tsg101 and CD63 expression in HCC cells by fluorescence microscopy and Western blot; conditions: for GPC3 and Tsg101 expression: fluorescence microscopy
# Protocol: Huh7.5 cells were cultured in DMEM high glucose with 10% fetal calf serum (FBS), L-glutamine, 1 mM sodium pyruvate, and 0.1 mM non-essential amino acids with 1% penicillin and streptomycin. Huh-7.5 cells were transfected with CD63-GFP plasmid, and multiple stable cell lines expressing (Huh-7.5-CD63-GFP) were selected using G-418 (Sigma-Aldrich, St. Louis, MO) selection. Human cholangiocarcinoma cell line (HuCCA) and human embryonic kidney cell line (HEK 293) were purchased from ATCC. These two cell lines were cultured according to the instruction provided by the supplier and maintained with regular medium change every three days. Torin 1 was purchased from EMD Millipore, Burlington, MA (475991-10MG), and Bafilomycin A1 were purchased from Cell Signaling Technology, Danvers, MA (54645S). Exosome-free fetal bovine serum was purchased from ThermoFisher Waltham, MA (A2720803). Monoclonal rabbit and mouse antibodies were used as primary antibodies in western blot as well as fluorescent microscopy imaging. Anti-CD81 monoclonal rabbit—MA5-13548—and anti-glypican3 monoclonal rabbit—MA5-16368 purchased from ThermoFisher. Anti-ARF6 monoclonal rabbit—5740S—and anti-Beta actin monoclonal rabbit—4970S purchased from Cell signaling, Anti-Tsg 101 monoclonal mouse sc-7964 purchased from Santa Cruz Biotechnology.
# Western blotting was performed using a standard protocol. Cultured cells were harvested by the treatment of trypsin-EDTA (Life Technologies, Carlsbad, CA, USA) at different time points and were washed twice with PBS, then lysed in ice-cold RIPA buffer (Sigma-Aldrich, St. Louis, MO, USA) with a protease inhibitor (ThermoFisher Scientific, Waltham, MA, USA) and phosphatase inhibitor cocktail (Sigma-Aldrich, St. Louis, MO, USA). The total protein content of the extract was quantified using NanoDrop™ 2000 (ThermoFisher Scientific, Waltham, MA, USA). Cell lysates (approximately 20 μg of protein) were loaded by SDS-PAGE and transferred into a nitrocellulose membrane ([…] pore size, ThermoFisher Scientific, Waltham, MA, USA). […]
# Huh-7.5 cells [3] = assay: Exosome and microvesicle production by immuno-magnetic bead affinity flow cytometry; conditions: 72 hours; for exosome production and GPC3 positive exosomes: CD63 beads
# Protocol: Cells were cultured in exosome-depleted medium three days before the EV analysis. Briefly, cellular debris was removed from the culture supernatant by centrifugation at 2000 g for 30 minutes. Cleared supernatants were transferred to a new tube and mixed with 0.5 volumes of total EV isolation reagent from Invitrogen Carlsbad, CA (4478359). Tubes were incubated at 40 C overnight. The following day samples were centrifuged at 10,000 g for one hour at 40 C. Carefully removed supernatant, and EV pellet was resuspended in PBS and stored at […]. EVs concentration and size distribution were determined using NanoSight (Model NTA3300 with 532 nm green laser module, Malvern, Worcestershire, UK). Biotin anti-human CD63 antibody (Clone: H5C6) was purchased from BioLegend, San Diego, CA (353018). Biotin-conjugated Annexin A1 antibody was purchased from FabGennix Frisco, TX (ANXA1-BIOTIN). Biotin conjugated heparin was purchased from Sigma-Aldrich, Saint Louis, MO (B9806-10MG). Anti-glypican-3 (sc-390587 AF488), Anti-ARF6 (sc-7971 FITC), and Anti-CD81 (sc-166029 PE) were purchased from Santa Cruz Biotechnology, Santa Cruz, CA.
# Streptavidin-coated magnetic beads were purchased from Invitrogen Carlsbad, CA (10608D). Beads were prewashed in phosphate buffer saline (PBS) and then incubated with biotinylated antibodies for one hour. Antibodies to CD63 or Annexin A1 were used at a proportion of 4 μg/5 mg of beads, or biotinylated heparin was used at 100 μg/1 mg of beads. […] Following this step, the EV-bead complex was incubated with fluorescence-labeled antibodies diluted in 100 μl PBS 1% BSA for one hour at room temperature. Beads were washed in PBS 1% BSA and then analyzed on a Becton-Dickinson flow cytometer (BD FACS Celesta) using BD FACSDiva Software 6.0, San Jose, CA. […]
# The bead-based assay was used to verify the production of microvesicles and exosomes by autophagy modulation. […] The impact of autophagy modulation on the production of exosomes and microvesicles was quantified by flow analysis. […] The next day captured EVs were analyzed after staining with […] by flow cytometry. […]
# [4] = test system: HCC cell lines (Huh-7, Huh-7PX, Huh-7.5, HLE); assay: DQ-Red BSA endocytosis assay with Torin1 stimulation; conditions: Torin1 200 nM
# Description: (§1) FIGS. 9A-9H: Show Association between p62, autophagy status, and glypican 3 (GPC3) expression in HCC cell lines and normal hepatocytes. […] Scale bars=m. […] The results are expressed as the mean±standard deviation (SD). ***P<0.001. For each cell line 10 view fields were quantified. […] Scale bars=20 m. […] Scale bars=20 m.
# DQ™ Red BSA (D12051, Thermo Scientific) is a fluorogenic substrate that is endocytosed in cells and traffics through early endosomes to late endosomes that then fuse with acidic hydrolase containing lysosomes. This leads to the formation of endo-lysosomes that degrade DQ-Red BSA, de-quenching the fluorescence of the dye attached to this cargo, therefore, produces bright red spots in endo-lysosomes. Equal number of cells was seeded in 6-well plate. Then, untreated and Torin1-treated live cells were incubated with DQ-Red BSA for one hour. After washing cells with PBS, cells were fixed with 4% paraformaldehyde and counterstained with Hoechst 33342 (H3570, Thermo Scientific). Cells were examined using fluorescent microscopy.
# Next, it was confirmed whether HCC cell lines and non-transformed primary hepatocytes could recapitulate impaired autophagy and increased GPC3 expression specific to HCC. A panel of 6 HCC cell lines was examined for p62 expression levels compared to primary human hepatocytes (PHH) using immunocytochemistry (FIG. 9A). […]
# [5] = test system: autophagy-deficient HCC lines (Huh-7, Huh-7PX, Huh-7.5); assay: p62 degradation by Western blot after Torin1 treatment
# Description: as §1
# PHHs or HCC cells were immobilized on glass slides and stained for p62 and glypican 3 by immunostaining. Exosomes and adherent cells were separated isolated from the cultures and lysates (20 μg of protein) prepared and examined for expression of p62, glypican 1, glypican 3 and exosome markers, CD9, TSG101 by SDS-PAGE electrophoresis and Western blotting. Cells were lysed in ice-cold lysis buffer (50 mM Tris HCl pH 8.0, 140 mM NaCl, 1.5 mM MgCl2, 0.5% NP-40 with complete protease inhibitor from Invitrogen) for 10 minutes in ice (about 1×10^6 cells/200 μL). Cells pelleted by low-speed centrifugation. The detergent compatible (DC) protein assay determined protein concentration. Samples were boiled for 10 minutes at 80° C. in the presence of 1× sodium dodecyl sulfate-polyacrylamide gel electrophoresis (SDS-PAGE)-loading buffer (250 mM Tris-HCl pH 6.8, 40% glycerol, 8% SDS, 0.57M β-mercaptoethanol, 0.12% bromophenol blue). Approximately 20 μg of protein was loaded onto 12% SDS-PAGE and transferred into a nitrocellulose membrane (LC2001 Thermo Scientific). […]
Compound,CD63-GFP expression [1],GPC3 and Tsg101 expression (Huh-7.5 cells [2]),"GPC3 and CD63 levels by Western blot (Huh-7.5 cells [2]; two concentrations, 72 hours)",ARF6 positive microvesicles (Huh-7.5 cells [3]; Annexin A1 beads),exosome production and GPC3 positive exosomes (Huh-7.5 cells [3]),"DQ-BSA fluorescence signal ([4]; autophagy-deficient HCC lines (Huh-7, Huh-7PX, Huh-7.5))",DQ-BSA fluorescence signal ([4]; autophagy-sufficient HLE cells),p62 levels [5]
CCC(=O)N1CCN(c2ccc(-n3c(=O)ccc4cnc5ccc(-c6cnc7ccccc7c6)cc5c43)cc2C(F)(F)F)CC1 [Torin1],degrades CD63-GFP chimera protein,degrades GPC3 and Tsg101,leads to GPC3 and CD63 degradation,promote ARF6 positive microvesicles,decreased total exosome production and glypican3 positive exosomes,could only be induced following Torin1 treatment,increased,decreased p62 levels
CO/C1=C\C(C)=C\[C@@H](C)[C@@H](O)[C@@H](C)C/C(C)=C/C=C/[C@H](OC)[C@@H]([C@@H](C)[C@@H](O)[C@H](C)[C@@]2(O)C[C@@H](O)[C@H](C)[C@@H](C(C)C)O2)OC1=O [Bafilomycin A1],induced its expression,accumulates GPC3 expression,,,increased exosome release and glypican-positive exosomes,,,
